Experiments:
[1] = target: recombinant human integrin αvβ6 (Homo sapiens, UniProt P06756+P18564); assay: Solid phase integrin αvβ6 binding assay; settings: read-out: αvβ6 Inhibition IC50 (nM) - range
Method: Microplates were coated with recombinant human integrin αvβ6 (2 μg/mL) in PBS (100 μL/well 25° C., overnight). The coating solution was removed, washed with wash buffer (0.05% Tween 20; 0.5 mM MnCl2; in 1×TBS). The plate was blocked with 200 μL/well of Block Buffer (1% BSA; 5% sucrose; 0.5 mM MnCl2; in 1×TBS) at 37° C. for 2 h. Dilutions of testing compounds and recombinant TGFβ1 LAP (0.67 μg/mL) in binding buffer (0.05% BSA; 2.5% sucrose; 0.5 mM MnCl2; in 1×TBS) were added. The plate was incubated for 2 hours at 25° C., washed, and incubated for 1 hour with Biotin-Anti-hLAP. Bound antibody was detected by peroxidase-conjugated streptavidin. The IC50 values for testing compounds were calculated by a four-parameter logistic regression.
The compounds tested were compound samples prepared according to procedures described in the Synthetic Examples section, with the stereochemical purity as indicated in the Examples.

[2] = tested on: Type I Collagen gene Col1a1; assay: Col1a1 expression in lung slices versus DMSO control slices (FIG. 5A, 5B, 6A, 6C); assay type: cell-based; settings: FIG. 6A; compared to the DMSO vehicle control slices
lung Col1a1 expression [3] = assay: Precision cut lung slices, chronic bleomycin, comparison with nintedanib and pirfenidone (Example B10); assay type: cell-based, Mice (C57BL/6); settings: chronic bleomycin PCLS, 7 days culture, vs DMSO vehicle; FIG. 6A
Method: (§1) Mice (C57BL/6) were administered 3 U/kg of bleomycin (Teva Pharmaceuticals; North Wales, Pa.) on Day 0 and 1 U/kg of bleomycin on days 14, 28, 42 and 56 via oropharyngeal aspiration while under anesthesia. At day 70, 14 days following the final bleomycin insult, precision cut lung slices were obtained. Following euthanization, 2% low gelling temp agarose was injected into the mouse lungs via the trachea. […] The lobes were then subjected to precision slicing to obtain samples for culture using a microtome (Compresstome VF-300-0Z, Precisionary; Greenville, N.C.). Individual slices were distributed in a multiwell culture plate and cultured for 7 days under control (DMSO) and test compound conditions. The viability of the slices over the course of culturing was confirmed by WST-1 assay of mitochondrial activity.
During the culture period, slices in the control group were treated with DMSO and slices in the test group were treated with a DMSO solution of one of: compound 5; nintedanib; pirfenidone; a combination of nintedanib and compound 5; a combination of pirfenidone and compound 5; or the small molecule ALK5 inhibitor. Compound 5 was […] effective to equal or exceed its respective IC50 values at αvβ6 and αvβ1. […] Nintendanib and pirfenidone were analyzed at concentrations 10× their reported therapeutic concentrations.

COL1A1 expression = assay: PCLS from IPF lung tissue, seven days, COL1A1 expression; assay type: cell-based, human; settings: PCLS from 5-7 IPF lung tissue samples, Compound 5 200 nM, nintedanib 75 nM, pirfenidone 50 μm, FIG. 6D
Method: PCLS from 5-7 idopathic pulmonary fibrosis (IPF) lung tissue samples were cultured for seven days with one of: DMSO; Compound 5 at 200 nM; nintedanib at 75 nM; pirfenidone at 50 μm; a combination of Compound 5 at 200 nM and nintedanib at 75 nM; a combination of Compound 5 at 200 nM and pirfenidone at 50 μm; or an Alk5 inhibitor at 1 μm. […] FIG. 6D is a bar graph showing relative expression of COL1A1 in precision cut lung slices (PCLS) from idopathic pulmonary fibrosis (IPF) lung tissue upon exposure to Compound 5, clinical standard of care compounds nintedanib (Nin) and pirfenidone (Pirf), and an ALK5 inhibitor, all versus DMSO control.
PCLS from a single IPF lung tissue sample were cultured for seven days with Compound 5 at concentrations of 200 pM, 2 nM, 60 nM, 200 nM, and 1 μM, along with 0.1% DMSO control and an Alk5 inhibitor at 1 μM. […] COL1A1 expression is also graphed for the PCLS in the presence of 0.1% DMSO control, and an Alk5 inhibitor at 1 μM.

[4] = tested on: Type I Collagen gene Col1a1 expression; assay: Precision cut lung slices of mice under acute bleomycin exposure, Col1a1 expression; assay type: cell-based, Mice (C57BL/6); settings: acute bleomycin PCLS, 3 days culture, normalized to DMSO; FIG. 5A
Method: Mice (C57BL/6) were administered 3 U/kg of bleomycin (Teva Pharmaceuticals; North Wales, Pa.) on day 0 via oropharyngeal aspiration while under anesthesia. On day 14, precision cut lung slices were obtained. Following euthanization, 2% low gelling temp agarose was injected into the mouse lungs via the trachea. […] The lobes were then subjected to precision slicing to obtain samples for culture using a microtome (Compresstome VF-300-0Z, Precisionary; Greenville, N.C.). Individual slices were distributed in a multiwell culture plate and cultured for 3 days under control (DMSO) and test compound conditions.

lung Col1a1 expression [5] = assay: Precision cut lung slices of mice under chronic bleomycin exposure, Col1a1 expression (Example B9); assay type: cell-based, Mice (C57BL/6); settings: chronic bleomycin PCLS, 7 days culture, normalized to DMSO; FIG. 5B
Method: as §1, with “after” for “following”
During the culture period, slices in the control group were treated with DMSO and slices in the test group were treated with a DMSO solution of one of: the selective antibody αvβ6 inhibitor 3G9; the αvβ1-selective small molecule inhibitor; a combination of the selective antibody αvβ6 inhibitor 3G9 and the αvβ1-selective small molecule inhibitor; compound 5; and the small molecule ALK5 inhibitor. The selective αvβ1 and αvβ6 integrin inhibitors were analyzed at ≥their respective IC90 concentrations for inhibition of TGF-beta activation. […]

lung Col1a1 expression [6] = assay: Precision cut lung slices from human IPF explants, 3 days, Col1a1 expression; assay type: cell-based; settings: human IPF PCLS, 3G9 ≥400 ng/mL, compound 5 179 nM, ALK5 inhibitor 1 μM, FIG. 6C
Description: Explanted lung tissue was obtained from human IPF subjects and inflated with agarose as described in the preceding examples. Biopsy cores were obtained from the agarose-inflated lung tissue. The biopsy cores were subjected to precision slicing to obtain several hundred μm thick. Individual slices were distributed in a multiwell culture plate and cultured for […] under control (DMSO) and test compound conditions. The viability of the slices over the course of culturing was confirmed by WST-1 assay of mitochondrial activity.

recombinant human integrin αvβ6, sequence (P06756 31-992 limits assumed): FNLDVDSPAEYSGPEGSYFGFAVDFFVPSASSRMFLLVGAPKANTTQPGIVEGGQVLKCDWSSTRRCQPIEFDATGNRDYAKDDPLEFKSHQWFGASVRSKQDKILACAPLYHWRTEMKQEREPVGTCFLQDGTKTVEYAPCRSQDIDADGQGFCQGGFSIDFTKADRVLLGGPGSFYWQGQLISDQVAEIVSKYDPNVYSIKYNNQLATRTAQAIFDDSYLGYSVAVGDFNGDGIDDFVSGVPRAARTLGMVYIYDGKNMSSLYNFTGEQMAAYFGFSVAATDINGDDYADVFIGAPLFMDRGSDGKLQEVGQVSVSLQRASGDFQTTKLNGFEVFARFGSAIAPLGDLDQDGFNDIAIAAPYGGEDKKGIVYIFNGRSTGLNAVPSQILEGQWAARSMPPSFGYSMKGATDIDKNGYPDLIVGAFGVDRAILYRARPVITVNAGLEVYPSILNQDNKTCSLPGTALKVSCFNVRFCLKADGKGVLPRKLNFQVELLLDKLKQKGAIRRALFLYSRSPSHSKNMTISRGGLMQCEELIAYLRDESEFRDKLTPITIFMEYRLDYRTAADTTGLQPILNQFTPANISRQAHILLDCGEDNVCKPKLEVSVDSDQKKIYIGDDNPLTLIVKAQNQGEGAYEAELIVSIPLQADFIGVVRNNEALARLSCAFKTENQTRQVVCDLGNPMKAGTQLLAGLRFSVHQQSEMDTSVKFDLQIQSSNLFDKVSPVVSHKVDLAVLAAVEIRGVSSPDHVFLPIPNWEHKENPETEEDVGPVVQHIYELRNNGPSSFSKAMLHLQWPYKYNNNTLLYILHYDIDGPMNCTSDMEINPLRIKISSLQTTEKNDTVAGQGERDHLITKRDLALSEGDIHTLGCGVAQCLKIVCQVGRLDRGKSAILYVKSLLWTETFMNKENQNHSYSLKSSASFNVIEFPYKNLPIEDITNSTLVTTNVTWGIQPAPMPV
recombinant human integrin αvβ6, sequence (P18564 22-707 limits assumed): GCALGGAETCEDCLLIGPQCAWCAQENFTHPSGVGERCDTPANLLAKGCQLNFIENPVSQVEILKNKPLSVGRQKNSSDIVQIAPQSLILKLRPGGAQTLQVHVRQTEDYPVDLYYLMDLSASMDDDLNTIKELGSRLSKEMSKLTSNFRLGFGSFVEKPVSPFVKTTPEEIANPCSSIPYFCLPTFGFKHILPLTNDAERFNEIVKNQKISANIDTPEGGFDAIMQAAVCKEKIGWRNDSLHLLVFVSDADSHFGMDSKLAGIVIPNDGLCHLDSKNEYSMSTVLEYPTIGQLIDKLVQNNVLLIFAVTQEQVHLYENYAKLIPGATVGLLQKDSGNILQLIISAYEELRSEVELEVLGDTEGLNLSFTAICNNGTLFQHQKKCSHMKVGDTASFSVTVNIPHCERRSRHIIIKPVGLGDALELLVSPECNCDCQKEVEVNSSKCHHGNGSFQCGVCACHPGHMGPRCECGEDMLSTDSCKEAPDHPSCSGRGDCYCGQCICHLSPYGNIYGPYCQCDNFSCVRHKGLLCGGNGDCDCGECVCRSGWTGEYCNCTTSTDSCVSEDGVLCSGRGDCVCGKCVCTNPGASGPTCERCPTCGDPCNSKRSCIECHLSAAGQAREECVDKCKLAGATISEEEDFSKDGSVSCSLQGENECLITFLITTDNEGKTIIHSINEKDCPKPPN

**Q.** `O=C(O)[C@H](CCN(CCCCc1ccc2c(n1)NCCC2)CCOc1ccc(F)cc1)Nc1ncc(C(F)(F)F)cn1` [Compound 139, (S)-4-((2-(4-fluorophenoxy)ethyl) (4-(5,6,7,8-tetrahydro-1,8-naphthyridin-2-yl)butyl)amino)-2-((5-(trifluoromethyl)pyrimidin-2-yl)amino) butanoic acid] was tested. Which IC50 [1] did it give?
**A.** < 50 nM

**Q.** `COC(=O)c1ccc2c(c1)NC(=O)/C2=C(\Nc1ccc(N(C)C(=O)CN2CCN(C)CC2)cc1)c1ccccc1` [nintedanib] was tested. Which “lung Col1a1 expression” value [2] did it give?
**A.** slight increase

**Q.** What about the “lung slice Col1a1 expression” value (lung Col1a1 expression [3]) of the same molecule?
**A.** slight increase

**Q.** What about the “reduced COL1A1 expression” value (COL1A1 expression) of the same molecule?
**A.** did not significantly reduce

**Q.** `Cc1ccc(=O)n(-c2ccccc2)c1` [pirfenidone] was tested. Which “lung Col1a1 expression” value [2] did it give?
**A.** slight increase

**Q.** And the “lung slice Col1a1 expression” value (lung Col1a1 expression [3])?
**A.** slight increase

**Q.** What about the “reduced COL1A1 expression” value (COL1A1 expression) of the same molecule?
**A.** did not significantly reduce

**Q.** For `CC(C)(C)c1cc(Br)cc(C(CC(=O)O)NC(=O)CNC(=O)c2cc(O)cc(NC3=NCC(O)CN3)c2)c1` [second pan-αv small molecule inhibitor, (3S)-N-[3-hydroxy-5-[(1,4,5,6-tetrahydro-5-hydroxy-2-pyrimidinyl)amino]benzoyl]glycyl-3-[3-bromo-5-(1,1-dimethylethyl)phenyl]-3-alanine], which “Type I Collagen gene Col1a1 expression” value [4] is on record?
**A.** reduced Type I Collagen gene Col1a1 expression

**Q.** What does the source list for `Cc1cccc(-c2n[nH]cc2-c2ccc(F)c(-c3cnn(CCO)c3)c2)n1` [small molecule ALK5 inhibitor, 4-[2-Fluoro-5-[3-(6-methyl-2-pyridinyl)-1H-pyrazol-4-yl]phenyl]-1H-pyrazole-1-ethanol, reference compound]?
**A.** Type I Collagen gene Col1a1 expression [4]: greatest decrease; lung Col1a1 expression (lung Col1a1 expression [5]): greatest decrease; lung slice Col1a1 expression (lung Col1a1 expression [3]): substantial, statistically significant (p<0.0001 vs vehicle) decrease; lung Col1a1 expression (lung Col1a1 expression [6]): substantial, statistically significant

From US20230028658A1, “EXPANDED DOSAGE REGIMENS FOR INTEGRIN INHIBITORS” (Pliant Therapeutics, Inc., priority 2021, published 2023)
